Results on 27 compounds are retold here after US20230000842A1, “METHODS OF TREATING CARTILAGE DISORDERS THROUGH INHIBITION OF CLK AND DYRK” (SAMUMED, LLC, priority 2019, published 2023).

Assay [1] deals with CLK3 kinase (Homo sapiens, UniProt P49761). Description: CLK3 kinase activity assay (Z-lyte FRET).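 Also: kinase activity read as coumarin/fluorescein emission ratio by FRET, unphosphorylated peptide as 0% and phosphorylated peptide as 100% control, values from non-linear regression of dose-response curves.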 Format: biochemical. As to conditions: Z-lyte Ser/Thr 18 peptide, 156 μM ATP, 1 h at room temperature.
Assay [2] concerns primary human mesenchymal stem cells (hMSCs). Description: Chondrogenesis screening using primary human mesenchymal stem cells. Format: cell-based. As to conditions: Homo sapiens, Mesenchymal stem cells, hMSC chondrogenesis; for Emax: maximum activity relative to TGF-β3 (10 ng/mL) positive control, read-out: Max. Activity as % TGF-β3 activity; for EC50: concentration required to induce 50% levels of chondrogenesis with TGF-β3 as positive control, read-out: Conc (nM) of 50% TGF-β3 activity. In a few lines: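 Primary hMSCs at passage 3–6 were treated across compound concentrations, with TGF-β3 as positive control. Chondrogenic nodule area per well was normalized to 3 DMSO wells on the same plate (fold over DMSO, 2–3 replicates). EC50, maximum activity and the dose reaching it were derived.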

The subject of assay [3] is MMP-3 levels in supernatant of chondrocytes stimulated with IL1-β. The assay is described as follows: Chondrocyte protection assay compound screening (MMP-3 LANCE Ultra). Format: cell-based, human. The note with it: Homo sapiens, Chondrocyte, IL1-β 10 ng/mL overnight, 11-point curves from 3 μM to 0.05 nM; for Emax: read-out: Maximum % Inhibition. In outline:
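Primary human chondrocytes (passage 2–5) in differentiation medium were stimulated with 10 ng/mL IL1-β for an overnight incubation at 37 °C. MMP-3 in 1:7-diluted supernatant was read by TR-FRET immunoassay against a standard curve, normalised to IL1-β-stimulated wells; EC50 and maximum % inhibition came from nonlinear regression.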
In general terms: Time-resolved FRET reads energy transfer from a long-lived donor to a nearby acceptor.

Assay [4] concerns Wnt pathway activity (SW480 colon carcinoma cells stably expressing the Sp5-Luc reporter). Description: Wnt pathway activity screening assay (Sp5-Luc reporter gene assay). The note with it: Homo sapiens, SW480, Table 4; SW480 cells stably expressing Sp5-Luc reporter, 10-point dose-response from 10 μM, 36 to 48 hours.
In assay [5] the target is CLK2 kinase (Homo sapiens, UniProt P49760). Description: CLK2 kinase activity assay (Z-lyte FRET).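 Also: FRET read-out as coumarin to fluorescein emission ratio, unphosphorylated peptide as 0% and phosphorylated peptide as 100% controls, duplicate reactions, non-linear regression fit of dose-response curves.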 The class given is biochemical. As to conditions: Z-lyte Ser/Thr 6 peptide, 60 μM ATP, 1 h at room temperature.

Bounds are passed on as bounds.

CLK3 kinase, sequence (P49761 whole entry): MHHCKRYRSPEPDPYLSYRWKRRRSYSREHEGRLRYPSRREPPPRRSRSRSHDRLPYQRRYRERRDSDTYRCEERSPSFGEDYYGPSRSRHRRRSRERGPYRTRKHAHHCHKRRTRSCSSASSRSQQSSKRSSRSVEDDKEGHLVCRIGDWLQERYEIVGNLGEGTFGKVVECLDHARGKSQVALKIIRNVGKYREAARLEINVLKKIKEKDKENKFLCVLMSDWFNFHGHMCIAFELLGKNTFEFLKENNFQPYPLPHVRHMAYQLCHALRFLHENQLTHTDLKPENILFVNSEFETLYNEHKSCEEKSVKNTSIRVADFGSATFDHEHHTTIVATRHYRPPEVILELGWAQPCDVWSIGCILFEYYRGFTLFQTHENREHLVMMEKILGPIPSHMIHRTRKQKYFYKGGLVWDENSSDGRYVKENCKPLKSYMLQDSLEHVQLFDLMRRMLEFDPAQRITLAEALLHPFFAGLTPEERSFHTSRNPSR
CLK2 kinase, sequence (P49760 whole entry): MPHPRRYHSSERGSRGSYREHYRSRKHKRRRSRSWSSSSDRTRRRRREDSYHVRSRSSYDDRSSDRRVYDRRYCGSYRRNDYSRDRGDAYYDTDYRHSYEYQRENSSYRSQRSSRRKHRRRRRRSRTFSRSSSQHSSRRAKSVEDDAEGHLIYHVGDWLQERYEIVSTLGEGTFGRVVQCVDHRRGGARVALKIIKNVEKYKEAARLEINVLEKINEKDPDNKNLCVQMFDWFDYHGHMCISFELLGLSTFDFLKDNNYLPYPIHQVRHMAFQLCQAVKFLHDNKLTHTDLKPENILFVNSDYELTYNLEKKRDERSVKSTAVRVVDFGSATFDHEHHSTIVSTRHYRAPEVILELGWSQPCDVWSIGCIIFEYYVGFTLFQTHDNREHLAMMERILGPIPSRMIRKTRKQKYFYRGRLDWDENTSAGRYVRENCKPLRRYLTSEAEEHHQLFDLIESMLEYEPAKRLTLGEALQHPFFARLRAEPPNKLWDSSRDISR

With `CCNCc1cncc(-c2cnc3[nH]nc(-c4cc5c(-c6cc(F)cc(CNS(C)(=O)=O)c6)cncc5[nH]4)c3c2)c1` [compound 533], the EC50 in assay [1] was 51 nM; in assay [3], at least 3000 nM; in assay [4], over 10000 nM; in assay [5] it was 2 nM. Moreover, the Emax in assay [2] amounted to 42.8%; in assay [3], 40.8%.

In the case of `Fc1cccc(-c2cccc3[nH]c(-c4n[nH]cc4/C=C/c4cncc(CN5CCCC5)c4)nc23)c1` [compound 26], the EC50 amounted to 492 nM in assay [1]; 2700 nM in assay [2]; 1.4 nM in assay [3]; 82.1 nM in assay [4]; 1 nM in assay [5]. Moreover, the Emax in assay [2] stood at 81.7%; in assay [3], 64.6%.

With `O=C(Nc1cc2cc(-c3cncc(NC4CCNC[C@@H]4F)n3)ccc2cn1)C1CC1` (stereo partly drawn) [compound 603], the EC50 was 11 nM in assay [1]; 2700 nM in assay [2]; at least 3000 nM in assay [3]; 9.5 nM in assay [4]; 1 nM in assay [5]. For the same compound, the results for the Emax in assay [2] and in assay [3] were 68% and 55.5%, respectively.

Regarding `O=C(CC1CCNCC1)Nc1cncc(-c2ccc3[nH]nc(-c4cc5c(N6CCCCC6)nccc5[nH]4)c3n2)c1` [compound 462], the EC50 in assay [1] is 48 nM; in assay [3], 1470 nM; in assay [4] it was over 10000 nM; in assay [5], 2 nM. Also, the Emax was 21.8% in assay [2] and 99.9% in assay [3].

As for `O=C1CCc2cccc(c2)-c2cncc3[nH]c(nc23)-c2n[nH]c3ccc(cc23)-c2cncc(c2)N1` [compound 619], the EC50 in assay [1] was 29 nM; in assay [2], 50 nM; in assay [3], at least 3000 nM; in assay [4] it was 51.8 nM; in assay [5], 2 nM. Further, the Emax in assay [2] came to 225%; in assay [3], 71.5%.

Turning to `CN1CCN(c2cncc3[nH]c(-c4n[nH]c5ccc(-c6cncc(CNCc7ccccc7)c6)cc45)cc23)CC1` [compound 490], the EC50 in assay [1] came out at 142 nM; in assay [3] it was 329 nM; in assay [4] it was 3290 nM; in assay [5] it was 3 nM. Moreover, the Emax stood at 101% in assay [2] and 80.2% in assay [3].

As for `Cc1cn(-c2cncc3[nH]c(-c4n[nH]c5ccc(-c6cncc(NC(=O)C(C)(C)C)c6)nc45)nc23)cn1` [compound 222], the EC50 was 263 nM in assay [1]; 100 nM in assay [2]; 1150 nM in assay [3]; over 10000 nM in assay [4]; 3 nM in assay [5]. The Emax was 150% in assay [2] and 64.9% in assay [3].

As to `CC(C)CC(=O)Nc1cncc(-c2ccc3[nH]nc(-c4nc5c(-c6cccnc6)cncc5[nH]4)c3c2)c1` [compound 189], the EC50 was determined as 26 nM in assay [1]; 100 nM in assay [2]; 111 nM in assay [3]; 12 nM in assay [4]; 8 nM in assay [5]. In addition, the Emax is 198% in assay [2] and 100% in assay [3].

Consider `O=C(Nc1cnccn1)c1n[nH]c2ccc(-c3cncc(CN4CCCCCC4)c3)cc12` [compound 99], for which the EC50 in assay [1] is 135 nM; in assay [3], at least 3000 nM; in assay [4], 430 nM; in assay [5], 2 nM. Further, the Emax in assay [3] was 39.6%.

For `NC(=O)c1n[nH]c2ccc(-c3cncc(CN4CCCCC4)c3)cc12` [compound 74], the EC50 in assay [1] is 498 nM; in assay [3] it was 2.3 nM; in assay [4] it was 1960 nM; in assay [5], 12 nM. For the same compound, the Emax in assay [3] was 62.7%.

In the case of `CN1CCC(Oc2ncc(NC(=O)c3n[nH]c4cc(F)c(-c5cnn(C)c5)cc34)cc2F)CC1` [compound 111], the EC50 in assay [1] was 89 nM; in assay [3] it was 12.6 nM; in assay [4], 1150 nM; in assay [5], 1 nM. The Emax in assay [3] came out at 76.2%.

In the case of `CN1CCC(n2cc(C(=O)Nc3cc4cc(-c5cncc6[nH]ccc56)ccc4cn3)cn2)CC1` [compound 604], the EC50 in assay [1] came out at 7 nM; in assay [3], 40.1 nM; in assay [4] it was 13.3 nM; in assay [5] it was 2 nM. Also, in assay [3], the Emax came out at 57.4%.

On to `CN1CCC(Nc2cc(C(=O)Nc3cc4cc(-c5cnn(C)c5)ccc4cn3)ccn2)CC1` [compound 555], for which the EC50 in assay [1] was 21 nM; in assay [3], at least 3000 nM; in assay [4], 65.6 nM; in assay [5], 1 nM. Moreover, the Emax in assay [3] stood at 85.1%.

As to `Cc1n[nH]c2ccc(-c3cncc(N[C@H]4CC[C@H](O)CC4)n3)cc12` [compound 43], the EC50 in assay [1] was 309 nM; in assay [3], at least 3000 nM; in assay [4], 95 nM; in assay [5], 1 nM. Moreover, the Emax in assay [3] came to 41.9%.

In the case of `Fc1ccc(-c2cncc3[nH]c(-c4n[nH]c5cnc(-c6cncc(CN7CCCC7)c6)cc45)nc23)s1` [compound 264], the EC50 in assay [1] was 35 nM; in assay [3], at least 3000 nM; in assay [4] it was 470 nM; in assay [5], 2 nM. The Emax in assay [3] was determined as 81%.

For the compound `Nc1ncc(NC(=O)c2n[nH]c3ccc(-c4cncc(CN5CCCCC5)c4)cc23)cn1` [compound 96], the EC50 turned out to be 17 nM in assay [1], 180 nM in assay [3], 30 nM in assay [4] and 1 nM in assay [5]. In assay [3], the Emax is 100%.

Take `O=C(Nc1ccc(OC(F)F)cc1)c1n[nH]c2ccc(-c3cnc4n3CCNC4)cc12` [compound 116]: the EC50 in assay [1] amounted to 391 nM; in assay [3], 13 nM; in assay [4], 684 nM; in assay [5], 1 nM. Also, the Emax in assay [3] was 61.2%.

With `Fc1cccc(-c2cncc3[nH]c(-c4n[nH]c5cnc(-c6cncc(OC7CCNCC7)c6)cc45)nc23)c1` [compound 152], the EC50 was 33 nM in assay [1], 1710 nM in assay [3], over 10000 nM in assay [4] and 1 nM in assay [5]. The Emax in assay [3] was 31.8%.

Take `Cc1ccncc1-c1cc2c(-c3nc4c(-c5cc(F)cc(CNS(C)(=O)=O)c5)cncc4[nH]3)n[nH]c2cn1` [compound 290]: the EC50 in assay [1] was 17 nM; in assay [3], 604 nM; in assay [4], 96.6 nM; in assay [5] it was 2 nM.

Take `O=C(Nc1cc2cc(-c3cncc(NCC4(F)CNC4)n3)ccc2cn1)C1CC1` [compound 602]: the EC50 in assay [1] stood at 18 nM; in assay [3], 897 nM; in assay [4], 119 nM; in assay [5] it was 2 nM. For the same compound, the Emax in assay [3] amounted to 99.5%.

Consider `CC(C)(C)C(=O)Nc1cncc(-c2ccc3[nH]nc(-c4nc5c(-c6cccnc6)cncc5[nH]4)c3c2)c1` [compound 188], for which the EC50 worked out at 23 nM in assay [1], 1100 nM in assay [3], 85.4 nM in assay [4] and 3 nM in assay [5]. For the same compound, the Emax in assay [3] stood at 100%.

As for `CN1CCC2(CC1)CN(c1cc(C(=O)Nc3cc4cc(-c5cnn(C)c5CN5CCCCC5)cnc4cn3)ccn1)C2` [compound 610], the EC50 in assay [1] was 31 nM; in assay [3], at least 3000 nM; in assay [4], 607 nM; in assay [5], 9 nM. Further, the Emax in assay [3] turned out to be 30.4%.

Take `CCC1(N)CN(c2cncc(-c3ccc4[nH]nc(C)c4c3)n2)C1` [compound 37]: the EC50 in assay [1] is 5500 nM; in assay [3], at least 3000 nM; in assay [4], 1730 nM; in assay [5], 43 nM. Also, in assay [3], the Emax is 55.1%.

`CN1CCC(Nc2ccc(NC(=O)c3n[nH]c4cc(F)c(-c5cnn(C)c5)cc34)cn2)CC1` [compound 109]: the EC50 in assay [1] stood at 79 nM; in assay [3], 1160 nM; in assay [4], 230 nM; in assay [5], 1 nM. Besides, the Emax in assay [3] worked out at 100%.

As for `Cc1nnc(C(=O)Nc2cc3cc(-c4cncn4C)ccc3cn2)s1` [compound 584], the EC50 in assay [1] is 177 nM; in assay [3] it was 71.5 nM; in assay [4] it was 1890 nM; in assay [5], 6 nM. Besides, the Emax in assay [3] was found to be 38.6%.

Consider `O=C(Nc1cc2cc(-c3cncc(NC4CCNCC4)n3)ccc2cn1)C1CCCCC1` [compound 601], for which the EC50 was 59 nM in assay [1], at least 3000 nM in assay [3], 319 nM in assay [4] and 2 nM in assay [5]. The Emax in assay [3] stood at 91.6%.

Consider `CN1CCN(c2cc(C(=O)Nc3ncc4ccc(-c5cnn(C)c5)cc4n3)ccn2)CC1` [compound 607], for which the EC50 in assay [1] was 135 nM; in assay [3], 417 nM; in assay [4], 468 nM; in assay [5], 6 nM. Besides, the Emax in assay [3] amounted to 79.7%.
